# Data as given in patent publication US11293931B2, “Quantitative profiling of progesterone metabolites for the prediction of spontaneous preterm delivery” (Indiana University Research and Technology Corporation, priority 2016, dated 2022).
# How the values were obtained:
# CALM2 = assay: Gene array of calmodulin expression with progestogen treatment: CALM2; assay type: cell-based, human; conditions: primary myometrial cells treated with a 1:10 M/G ratio; for fold increase in CALM2 expression: compared to DMSO treated controls (FIG. 11)
# Description: (§1) The effect of progesterone or HPC treatment on calmodulin gene expression (CALM1, CALM2, CALM3) was further explored. Primary myometrial cells were treated with a 1:10 M/G ratio and a gene array used to assess calmodulin expression. […] The fold change in total CALM expression (trend line for all three isoforms) was approximately half with HPC treatment (4.4-fold) compared to progesterone (8.9-fold) or control treatments (8.3-fold).
# total CALM expression = assay: Gene array of calmodulin expression with progestogen treatment: total CALM (all three isoforms); assay type: cell-based, human; conditions: primary myometrial cells treated with a 1:10 M/G ratio
# Description: as §1
# CALM1 = assay: Gene array of calmodulin expression with progestogen treatment: CALM1; assay type: cell-based, human; conditions: primary myometrial cells treated with a 1:10 M/G ratio, compared to DMSO treated controls (FIG. 11)
# Description: as §1
# CALM3 = assay: Gene array of calmodulin expression with progestogen treatment: CALM3; assay type: cell-based, human; conditions: primary myometrial cells treated with a 1:10 M/G ratio, compared to DMSO treated controls (FIG. 11)
# Description: as §1
# [1] = women with a prior history of spontaneous preterm birth; cited from earlier work
Structure (SMILES),reduction in CALM2 expression compared to progesterone treated cells (CALM2),fold increase in CALM2 expression (CALM2),fold change in total CALM expression (trend line for all three isoforms) (total CALM expression),change in CALM1 expression (CALM1),change in CALM3 expression (CALM3),reduction in the risk of recurrent sPTB [1]
"CCCCCC(=O)O[C@]1(C(C)=O)CC[C@H]2[C@@H]3CCC4=CC(=O)CC[C@]4(C)[C@H]3CC[C@@]21C [HPC, 17α-hydroxyprogesterone caproate]",~30%,9 fold,4.4 fold,modest decreases,modest decreases,30-40%
CC(=O)[C@H]1CC[C@H]2[C@@H]3CCC4=CC(=O)CC[C@]4(C)[C@H]3CC[C@]12C [progesterone],–,13 fold,8.9 fold,modest decreases,modest decreases,–
